{"source": "patent US11534457B2", "about": "“Use of dextran sulfate” (priority 2017, dated 2022)", "tested_on": "severe traumatic brain injury (sTBI)", "test": "sTBI in rats, brain gene expression arrays and pathway analysis (Example 9)", "assay_type": "in vivo, Male Wistar rats", "design": "key to z score, canonical pathway Dendritic Cell Maturation / z score, canonical pathway Adrenomedullin Signaling pathway / z score, canonical pathway Endothelin-1 Signaling / effect on canonical pathway Adrenomedullin Signaling pathway / effect on canonical pathway Endothelin-1 Signaling / effect on canonical pathway Dendritic Cell Maturation / Ingenuity canonical pathway Adrenomedullin signaling pathway, z score / Ingenuity canonical pathway FLT3 Signaling in Hematopoietic Progenitor Cells, z score / Ingenuity canonical pathway Opioid Signaling Pathway, z score / Ingenuity canonical pathway VDR/RXR Activation, z score / Ingenuity canonical pathway Neuropathic Pain Signaling In Dorsal Horn Neurons, z score / Ingenuity canonical pathway STAT3 Pathway, z score / Ingenuity canonical pathway IL-1 Signaling, z score / Ingenuity canonical pathway IL-6 Signaling, z score / Ingenuity canonical pathway NF-κB Signaling, z score / Ingenuity canonical pathway Role of NFAT in Cardiac Hypertrophy, z score / Ingenuity canonical pathway PPARα/RXRα Activation, z score: *: ambiguous effect", "conditions": "TBI + 5 mg/kg LMW-DS, 7 days after TBI", "protocol": "The experimental protocol used in this study was approved by the Ethical Committee of the Catholic University of Rome, according to international standards and guidelines for animal care. Male Wistar rats of 300-350 g body weight were fed with standard laboratory diet and water ad libitum in a controlled environment. As the anesthetic mixture, the animals received 35 mg/kg b.w. ketamine and 0.25 mg/kg body weight midazolam by i.p. injection. Severe traumatic brain injury (sTBI) was induced by dropping a 450 g weight from 2 m height on to the rat head that had been protected by a metal disk previously fixed on the skull, according to the “weight drop” impact acceleration model (Marmarou et al., A new model of diffuse brain injury in rats. Part I: Pathophysiology and biomechanics. J Neurosurg. 1994; 80: 291-300). […] At the end of each period of treatment, rats were anesthetized again and then immediately sacrificed.\nLMW-DS (Tikomed AB) was provided at a stock concentration of 20 mg/ml and was kept in a temperature-monitored refrigerator at 4° C. LMW-DS aliquots were diluted to the appropriate dosing concentration in sterile saline prior to delivery of a single subcutaneous injection.\nThree doses of LMW-DS were administered subcutaneously 30 minutes post-TBI. The animals were sacrificed at 2 days post-TBI. The animals were divided into the following subgroups:\nThree doses of LMW-DS were administered subcutaneously 30 minutes post-TBI. The animals were sacrificed at 7 days post-TBI. The animals were divided into the following subgroups:\nAn in vivo craniectomy was performed on all animals during anesthesia. After carefully removing the rat's skull, the brain was exposed and removed with a surgical spatula and quickly dropped in RNALater and preserved at 4° C. for further processing.\nRNA extraction and array processing was carried out by SourceBioscience. The arrays used were the Agilent Rat expression arrays.\nStatistical analysis was carried out using the Metaboanalyst software package. Gene expression changes of 10% with a p<0.05 were regarded as significant.\nPathway analysis of the differentially regulated genes was carried out using the Ingenuity pathway analysis package. The analysis was performed with special reference to pathways and molecular processes and diseases associated with neurodegenerative disease, including dementia, Alzheimer's disease, ALS, TBI and stroke, and with scarring and fibrosis, including glaucoma and normal pressure hydrocephalus (NPH) after subarachnoid haemorrhage.", "data": [{"substance": "low molecular weight dextran sulfate [LMW-DS]", "values": [{"measurement": "z score: Cellular homeostasis", "result": 1.615}, {"measurement": "z score: Chemotaxis", "result": 1.873}, {"measurement": "z score: Concentration of lipid", "result": "−0.575"}, {"measurement": "z score: Development of body axis", "result": 1.213}, {"measurement": "z score: Development of body trunk", "result": 1.09}, {"measurement": "z score: Development of carcinoma", "result": 0.152}, {"measurement": "z score: Development of connective tissue cells", "result": 1.638}, {"measurement": "z score: Development of epithelial tissue", "result": 0.262}, {"measurement": "z score: Development of genitourinary system", "result": "−0.336"}, {"measurement": "z score: Development of head", "result": 1.213}, {"measurement": "z score: Development of neurons", "result": 1.106}, {"measurement": "z score: Development of sensory organ", "result": 0.669}, {"measurement": "z score: Development of vasculature", "result": 0.295}, {"measurement": "z score: Differentiation of bone", "result": 1.012}, {"measurement": "z score: Differentiation of bone cells", "result": 0.85}, {"measurement": "z score: Differentiation of connective tissue cells", "result": 0.769}, {"measurement": "z score: Digestive organ tumor", "result": "−1.348"}, {"measurement": "z score: Digestive system cancer", "result": "−1.792"}, {"measurement": "z score: Endocrine gland tumor", "result": "−0.067"}, {"measurement": "z score: Expression of RNA", "result": 1.797}, {"measurement": "z score: Extracranial solid tumor", "result": 0.369}, {"measurement": "z score: Failure of kidney", "result": 0.555}, {"measurement": "z score: Formation of eye", "result": 1.664}, {"measurement": "z score: Gastrointestinal tumor", "result": "−1.215"}, {"measurement": "z score: Genital tumor", "result": 0.305}, {"measurement": "z score: Genitourinary carcinoma", "result": 1.131}, {"measurement": "z score: Genitourinary tumor", "result": 1.388}, {"measurement": "z score: Glucose metabolism disorder", "result": 0.439}, {"measurement": "z score: Growth of connective tissue", "result": "−0.324"}, {"measurement": "z score: Growth of epithelial tissue", "result": "−1.58"}, {"measurement": "z score: Growth of tumor", "result": 2.295}, {"measurement": "z score: Head and neck cancer", "result": "−1.154"}, {"measurement": "z score: Head and neck tumor", "result": "−0.355"}, {"measurement": "z score: Hematologic cancer", "result": "−1.725"}, {"measurement": "z score: Hematologic cancer of cells", "result": "−1.486"}, {"measurement": "z score: Hematopoietic neoplasm", "result": "−1.002"}, {"measurement": "z score: Intestinal tumor", "result": "−1.09"}, {"measurement": "z score: Invasion of cells", "result": 1.32}, {"measurement": "z score: Leukocyte migration", "result": 3.062}, {"measurement": "z score: Lymphatic system tumor", "result": "−0.956"}, {"measurement": "z score: Lymphocytic cancer", "result": "−1.486"}, {"measurement": "z score: Lymphocytic neoplasm", "result": "−1.486"}, {"measurement": "z score: Lymphoid cancer", "result": "−0.956"}, {"measurement": "z score: Lymphoma", "result": "−1.224"}, {"measurement": "z score: Lymphoproliferative disorder", "result": "−1.727"}, {"measurement": "z score: Lymphoreticular neoplasm", "result": "−1.224"}, {"measurement": "z score: Malignant genitourinary solid tumor", "result": 0.346}, {"measurement": "z score: Malignant solid tumor", "result": 0.423}, {"measurement": "z score: Microtubule dynamics", "result": 1.82}, {"measurement": "z score: Migration of cells", "result": 2.659}, {"measurement": "z score: Migration of endothelial cells", "result": 2.16}, {"measurement": "z score: Morbidity or mortality", "result": "−2.848"}, {"measurement": "z score: Necrosis", "result": 0.228}, {"measurement": "z score: Necrosis of epithelial tissue", "result": 1.674}, {"measurement": "z score: Neoplasia of cells", "result": 0.474}, {"measurement": "z score: Neoplasia of leukocytes", "result": "−1.486"}, {"measurement": "z score: Non-hematologic malignant neoplasm", "result": "−0.243"}, {"measurement": "z score: Non-hematological solid tumor", "result": 0.021}, {"measurement": "z score: Non-melanoma solid tumor", "result": 0.01}, {"measurement": "z score: Obesity", "result": 0.493}, {"measurement": "z score: Organismal death", "result": "−2.885"}, {"measurement": "z score: Organization of cytoskeleton", "result": 2.174}, {"measurement": "z score: Pelvic tumor", "result": 0.445}, {"measurement": "z score: Peripheral vascular disease", "result": 1}, {"measurement": "z score: Proliferation of connective tissue cells", "result": "−0.747"}, {"measurement": "z score: Proliferation of epithelial cells", "result": "−1.196"}, {"measurement": "z score: Quantity of cells", "result": 0.634}, {"measurement": "z score: Quantity of connective tissue", "result": 0.609}, {"measurement": "z score: Renal impairment", "result": 0.555}, {"measurement": "z score: Secretion of molecule", "result": 1.386}, {"measurement": "z score: Sensory system development", "result": "−0.307"}, {"measurement": "z score: Size of body", "result": 0.748}, {"measurement": "z score: Skin lesion", "result": "−0.111"}, {"measurement": "z score: Skin tumor", "result": "−2.396"}, {"measurement": "z score: Solid tumor", "result": 1.29}, {"measurement": "z score: Synthesis of lipid", "result": 1.937}, {"measurement": "z score: Transcription", "result": 1.317}, {"measurement": "z score: Transcription of RNA", "result": 1.221}, {"measurement": "z score: Transport of molecule", "result": 1.854}, {"measurement": "z score: Tumorigenesis of tissue", "result": "−0.832"}, {"measurement": "z score: Vasculogenesis", "result": 0.507}, {"measurement": "Ingenuity canonical pathway Acute Phase Response Signaling, z score", "setting": "relative to control", "result": 1.89}, {"measurement": "Ingenuity canonical pathway Adrenomedullin signaling pathway, z score", "setting": "relative to control", "result": "−0.632"}, {"measurement": "Ingenuity canonical pathway Cardiac Hypertrophy Signaling, z score", "setting": "relative to control", "result": 1}, {"measurement": "Ingenuity canonical pathway Colorectal Cancer Metastasis Signaling, z score", "setting": "relative to control", "result": "−0.378"}, {"measurement": "Ingenuity canonical pathway Dendritic Cell Maturation, z score", "setting": "relative to control", "result": 1.897}, {"measurement": "Ingenuity canonical pathway ERK5 Signaling, z score", "setting": "relative to control", "result": "−0.447"}, {"measurement": "Ingenuity canonical pathway ERK/MAPK Signaling, z score", "setting": "relative to control", "result": 1}, {"measurement": "Ingenuity canonical pathway Endothelin-1 Signaling, z score", "setting": "relative to control", "result": 1.633}, {"measurement": "Ingenuity canonical pathway Fcγ Receptor-mediated Phagocytosis in Macrophages and Monocytes, z score", "setting": "relative to control", "result": 2.236}, {"measurement": "Ingenuity canonical pathway GNRH Signaling, z score", "setting": "relative to control", "result": 2}, {"measurement": "Ingenuity canonical pathway HMGB1 Signaling, z score", "setting": "relative to control", "result": 1.134}, {"measurement": "Ingenuity canonical pathway IL-1 Signaling, z score", "setting": "relative to control", "result": 1}, {"measurement": "Ingenuity canonical pathway IL-6 Signaling, z score", "setting": "relative to control", "result": 1}, {"measurement": "Ingenuity canonical pathway IL-8 Signaling, z score", "setting": "relative to control", "result": 2.646}, {"measurement": "Ingenuity canonical pathway ILK Signaling, z score", "setting": "relative to control", "result": 1.89}, {"measurement": "Ingenuity canonical pathway Leukocyte Extravasation Signaling, z score", "setting": "relative to control", "result": 1.342}, {"measurement": "Ingenuity canonical pathway NF-κB Signaling, z score", "setting": "relative to control", "result": "*"}, {"measurement": "Ingenuity canonical pathway Neuroinflammation Signaling Pathway, z score", "setting": "relative to control", "result": 1.941}, {"measurement": "Ingenuity canonical pathway Opioid Signaling Pathway, z score", "setting": "relative to control", "result": "*"}, {"measurement": "Ingenuity canonical pathway Osteoarthritis Pathway, z score", "setting": "relative to control", "result": "−1"}, {"measurement": "Ingenuity canonical pathway PI3K Signaling in B Lymphocytes, z score", "setting": "relative to control", "result": 1.89}, {"measurement": "Ingenuity canonical pathway PKCθ Signaling in T Lymphocytes, z score", "setting": "relative to control", "result": 2}, {"measurement": "Ingenuity canonical pathway PPAR Signaling, z score", "setting": "relative to control", "result": "−1.342"}]}]}
